# Results as given in the NIST ThermoML archive (doi:10.1016/j.fluid.2017.12.010).
# Numbers after ± are expanded uncertainties.
# Test: xn = mol fraction of the nth substance listed
# Conditions: Liquid, Vibrating tube method
compound,measurement,setting,value
CCCCCCCCCCCC [dodecane] + CCCCCCCCCC,mass density,"303.31 K, 1000 kPa, x2 = 0.2297",739 ± 3 kg/m3
same,mass density,"303.32 K, 5000 kPa, x2 = 0.2297",742 ± 3 kg/m3
same,mass density,"303.32 K, 10000 kPa, x2 = 0.2297",745 ± 3 kg/m3
same,mass density,"303.33 K, 20000 kPa, x2 = 0.2297",752 ± 3 kg/m3
same,mass density,"303.33 K, 30000 kPa, x2 = 0.2297",759 ± 3 kg/m3
same,mass density,"303.34 K, 40000 kPa, x2 = 0.2297",765 ± 3 kg/m3
same,mass density,"303.35 K, 100 kPa, x2 = 0.2297",738 ± 3 kg/m3
same,mass density,"303.35 K, 60000 kPa, x2 = 0.2297",775 ± 3 kg/m3
same,mass density,"303.35 K, 80000 kPa, x2 = 0.2297",785 ± 3 kg/m3
same,mass density,"303.35 K, 100000 kPa, x2 = 0.2297",794 ± 3 kg/m3
same,mass density,"303.39 K, 100 kPa, x2 = 0.4436",734 ± 3 kg/m3
same,mass density,"303.39 K, 1000 kPa, x2 = 0.4436",735 ± 3 kg/m3
same,mass density,"303.39 K, 5000 kPa, x2 = 0.4436",738 ± 3 kg/m3
same,mass density,"303.39 K, 10000 kPa, x2 = 0.4436",742 ± 3 kg/m3
same,mass density,"303.41 K, 20000 kPa, x2 = 0.4436",749 ± 3 kg/m3
same,mass density,"303.41 K, 40000 kPa, x2 = 0.4436",761 ± 3 kg/m3
same,mass density,"303.41 K, 80000 kPa, x2 = 0.4436",782 ± 3 kg/m3
same,mass density,"303.41 K, 99990 kPa, x2 = 0.4436",791 ± 3 kg/m3
same,mass density,"303.42 K, 30000 kPa, x2 = 0.4436",755 ± 3 kg/m3
same,mass density,"303.42 K, 60000 kPa, x2 = 0.4436",772 ± 3 kg/m3
same,mass density,"303.43 K, 100 kPa, x2 = 0.6433",730 ± 3 kg/m3
same,mass density,"303.43 K, 1000 kPa, x2 = 0.6433",731 ± 3 kg/m3
same,mass density,"303.43 K, 20000 kPa, x2 = 0.6433",745 ± 3 kg/m3
same,mass density,"303.43 K, 30000 kPa, x2 = 0.6433",752 ± 3 kg/m3
same,mass density,"303.43 K, 40000 kPa, x2 = 0.6433",758 ± 3 kg/m3
same,mass density,"303.43 K, 60000 kPa, x2 = 0.6433",769 ± 3 kg/m3
same,mass density,"303.43 K, 80000 kPa, x2 = 0.6433",779 ± 3 kg/m3
same,mass density,"303.43 K, 100000 kPa, x2 = 0.6433",788 ± 3 kg/m3
same,mass density,"303.44 K, 5000 kPa, x2 = 0.6433",734 ± 3 kg/m3
same,mass density,"303.44 K, 10000 kPa, x2 = 0.6433",738 ± 3 kg/m3
same,mass density,"303.45 K, 100 kPa, x2 = 0.7841",727 ± 3 kg/m3
same,mass density,"303.45 K, 10000 kPa, x2 = 0.7841",735 ± 3 kg/m3
same,mass density,"303.45 K, 20000 kPa, x2 = 0.7841",742 ± 3 kg/m3
same,mass density,"303.45 K, 30000 kPa, x2 = 0.7841",749 ± 3 kg/m3
same,mass density,"303.45 K, 40000 kPa, x2 = 0.7841",755 ± 3 kg/m3
same,mass density,"303.45 K, 60000 kPa, x2 = 0.7841",766 ± 3 kg/m3
same,mass density,"303.45 K, 80000 kPa, x2 = 0.7841",776 ± 3 kg/m3
same,mass density,"303.45 K, 100000 kPa, x2 = 0.7841",785 ± 3 kg/m3
same,mass density,"303.46 K, 1000 kPa, x2 = 0.7841",728 ± 3 kg/m3
same,mass density,"303.47 K, 5000 kPa, x2 = 0.7841",731 ± 3 kg/m3
same,mass density,"312.89 K, 100 kPa, x2 = 0",736 ± 3 kg/m3
same,mass density,"312.89 K, 1000 kPa, x2 = 0",737 ± 3 kg/m3
same,mass density,"312.9 K, 5000 kPa, x2 = 0",740 ± 3 kg/m3
same,mass density,"312.9 K, 10000 kPa, x2 = 0",744 ± 3 kg/m3
same,mass density,"312.9 K, 20000 kPa, x2 = 0",751 ± 3 kg/m3
same,mass density,"312.9 K, 30000 kPa, x2 = 0",757 ± 3 kg/m3
same,mass density,"312.9 K, 40000 kPa, x2 = 0",763 ± 3 kg/m3
same,mass density,"312.9 K, 50000 kPa, x2 = 0",769 ± 3 kg/m3
same,mass density,"312.9 K, 60000 kPa, x2 = 0",774 ± 3 kg/m3
same,mass density,"312.9 K, 70000 kPa, x2 = 0",780 ± 3 kg/m3
same,mass density,"312.9 K, 80000 kPa, x2 = 0",784 ± 3 kg/m3
same,mass density,"312.9 K, 90000 kPa, x2 = 0",789 ± 3 kg/m3
same,mass density,"312.9 K, 100000 kPa, x2 = 0",793 ± 3 kg/m3
same,mass density,"313.23 K, 100 kPa, x2 = 0.2297",732 ± 3 kg/m3
same,mass density,"313.24 K, 1000 kPa, x2 = 0.2297",732 ± 3 kg/m3
same,mass density,"313.24 K, 5000 kPa, x2 = 0.2297",736 ± 3 kg/m3
same,mass density,"313.24 K, 10000 kPa, x2 = 0.2297",740 ± 3 kg/m3
same,mass density,"313.24 K, 20000 kPa, x2 = 0.2297",747 ± 3 kg/m3
same,mass density,"313.24 K, 30000 kPa, x2 = 0.2297",753 ± 3 kg/m3
same,mass density,"313.24 K, 40000 kPa, x2 = 0.2297",760 ± 3 kg/m3
same,mass density,"313.24 K, 60000 kPa, x2 = 0.2297",771 ± 3 kg/m3
same,mass density,"313.25 K, 80000 kPa, x2 = 0.2297",781 ± 3 kg/m3
same,mass density,"313.25 K, 100000 kPa, x2 = 0.2297",790 ± 3 kg/m3
same,mass density,"313.3 K, 30000 kPa, x2 = 0.4436",750 ± 3 kg/m3
same,mass density,"313.3 K, 40000 kPa, x2 = 0.4436",756 ± 3 kg/m3
same,mass density,"313.3 K, 100000 kPa, x2 = 0.4436",787 ± 3 kg/m3
same,mass density,"313.31 K, 100 kPa, x2 = 0.4436",728 ± 3 kg/m3
same,mass density,"313.31 K, 1000 kPa, x2 = 0.4436",729 ± 3 kg/m3
same,mass density,"313.31 K, 10000 kPa, x2 = 0.4436",736 ± 3 kg/m3
same,mass density,"313.31 K, 20000 kPa, x2 = 0.4436",743 ± 3 kg/m3
same,mass density,"313.31 K, 60000 kPa, x2 = 0.4436",767 ± 3 kg/m3
same,mass density,"313.31 K, 80000 kPa, x2 = 0.4436",778 ± 3 kg/m3
same,mass density,"313.32 K, 5000 kPa, x2 = 0.4436",732 ± 3 kg/m3
same,mass density,"313.36 K, 100 kPa, x2 = 0.6433",724 ± 3 kg/m3
same,mass density,"313.36 K, 1000 kPa, x2 = 0.6433",725 ± 3 kg/m3
same,mass density,"313.36 K, 10000 kPa, x2 = 0.6433",732 ± 3 kg/m3
same,mass density,"313.36 K, 20000 kPa, x2 = 0.6433",740 ± 3 kg/m3
same,mass density,"313.37 K, 100 kPa, x2 = 0.7841",721 ± 3 kg/m3
same,mass density,"313.37 K, 1000 kPa, x2 = 0.7841",722 ± 3 kg/m3
same,mass density,"313.37 K, 5000 kPa, x2 = 0.6433",728 ± 3 kg/m3
same,mass density,"313.37 K, 5000 kPa, x2 = 0.7841",725 ± 3 kg/m3
same,mass density,"313.37 K, 10000 kPa, x2 = 0.7841",729 ± 3 kg/m3
same,mass density,"313.37 K, 30000 kPa, x2 = 0.6433",746 ± 3 kg/m3
same,mass density,"313.37 K, 40000 kPa, x2 = 0.6433",753 ± 3 kg/m3
same,mass density,"313.37 K, 40000 kPa, x2 = 0.7841",750 ± 3 kg/m3
same,mass density,"313.37 K, 60000 kPa, x2 = 0.7841",762 ± 3 kg/m3
same,mass density,"313.37 K, 80000 kPa, x2 = 0.7841",772 ± 3 kg/m3
same,mass density,"313.38 K, 20000 kPa, x2 = 0.7841",737 ± 3 kg/m3
same,mass density,"313.38 K, 30000 kPa, x2 = 0.7841",744 ± 3 kg/m3
same,mass density,"313.38 K, 60000 kPa, x2 = 0.6433",764 ± 3 kg/m3
same,mass density,"313.38 K, 80000 kPa, x2 = 0.6433",774 ± 3 kg/m3
same,mass density,"313.38 K, 100000 kPa, x2 = 0.6433",784 ± 3 kg/m3
same,mass density,"313.38 K, 100000 kPa, x2 = 0.7841",781 ± 3 kg/m3
same,mass density,"322.83 K, 100 kPa, x2 = 0",727 ± 3 kg/m3
same,mass density,"322.83 K, 1000 kPa, x2 = 0",728 ± 3 kg/m3
same,mass density,"322.83 K, 5000 kPa, x2 = 0",732 ± 3 kg/m3
same,mass density,"322.83 K, 10000 kPa, x2 = 0",736 ± 3 kg/m3
same,mass density,"322.83 K, 20000 kPa, x2 = 0",743 ± 3 kg/m3
same,mass density,"322.83 K, 30000 kPa, x2 = 0",750 ± 3 kg/m3
same,mass density,"322.83 K, 40000 kPa, x2 = 0",756 ± 3 kg/m3
same,mass density,"322.83 K, 50000 kPa, x2 = 0",762 ± 3 kg/m3
same,mass density,"322.83 K, 60000 kPa, x2 = 0",768 ± 3 kg/m3
same,mass density,"322.83 K, 70000 kPa, x2 = 0",773 ± 3 kg/m3
same,mass density,"322.83 K, 80000 kPa, x2 = 0",778 ± 3 kg/m3
same,mass density,"322.83 K, 90000 kPa, x2 = 0",783 ± 3 kg/m3
same,mass density,"322.83 K, 100000 kPa, x2 = 0",787 ± 3 kg/m3
same,mass density,"323.08 K, 100 kPa, x2 = 0.2297",723 ± 3 kg/m3
same,mass density,"323.08 K, 1000 kPa, x2 = 0.2297",724 ± 3 kg/m3
same,mass density,"323.08 K, 5000 kPa, x2 = 0.2297",727 ± 3 kg/m3
same,mass density,"323.08 K, 10000 kPa, x2 = 0.2297",731 ± 3 kg/m3
same,mass density,"323.08 K, 20000 kPa, x2 = 0.2297",739 ± 3 kg/m3
same,mass density,"323.08 K, 30000 kPa, x2 = 0.2297",746 ± 3 kg/m3
same,mass density,"323.08 K, 40000 kPa, x2 = 0.2297",752 ± 3 kg/m3
same,mass density,"323.09 K, 100 kPa, x2 = 0.4436",719 ± 3 kg/m3
same,mass density,"323.09 K, 60000 kPa, x2 = 0.2297",764 ± 3 kg/m3
same,mass density,"323.09 K, 80000 kPa, x2 = 0.2297",774 ± 3 kg/m3
same,mass density,"323.09 K, 100010 kPa, x2 = 0.2297",784 ± 3 kg/m3
same,mass density,"323.1 K, 1000 kPa, x2 = 0.4436",720 ± 3 kg/m3
same,mass density,"323.1 K, 5000 kPa, x2 = 0.4436",724 ± 3 kg/m3
